Data reported in ChEMBL document CHEMBL6083210, “Exploring apoptotic induction of malabaricone A in triple-negative breast cancer cells: an acylphenol phyto-entity isolated from the fruit rind of Myristica malabarica Lam” (RSC Med Chem, 2024).
Calls of active or inactive are those of the source. The rule behind the calls is not given here.

Experiments:
MDA-MB-231 [1] = assay: Induction of apoptosis in human MDA-MB-231 cells assessed as fold increase in caspase 9 level at 8 uM by fluorometric assay; assay type: functional
MDA-MB-231 [2] = assay: Induction of apoptosis in human MDA-MB-231 cells assessed as fold increase in caspase 8 level at 8 uM incubated for 24 hrs by fluorometric assay; assay type: functional
MDA-MB-231 [3] = assay: Upregulation of TNF-beta protein level in human MDA-MB-231 cells at 8 uM measured after 24 hrs; assay type: functional, cell-based
MDA-MB-231 [4] = assay: Downregulation of livin protein level in human MDA-MB-231 cells at 8 uM measured after 24 hrs; assay type: functional, cell-based
MDA-MB-231 [5] = assay: Induction of apoptosis in human MDA-MB-231 cells assessed as early apoptotic cells at 6 uM incubated for 24 hrs by FITC annexin V staining based analysis (reference value: 1.4%); assay type: functional
MDA-MB-231 [6] = assay: Upregulation of caspase 8 protein level in human MDA-MB-231 cells at 8 uM measured after 24 hrs; assay type: functional, cell-based
MDA-MB-231 [7] = assay: Downregulation of cyclin A2 level in human MDA-MB-231 cells at 6 to 10 uM by Western blot analysis; assay type: functional, cell-based; conditions: dose 6-10 µM
MDA-MB-231 [8] = assay: Induction of apoptosis in human MDA-MB-231 cells assessed as necrotic cells at 10 uM incubated for 24 hrs by FITC annexin V staining based analysis (reference value: 0.8%); assay type: functional
MCF-10A = assay: Antiproliferative activity against human MCF-10A cells assessed as reduction in cell viability incubated for 24 hrs by MTT assay; assay type: functional, cell-based
MDA-MB-231 [9] = assay: Induction of cell cycle arrest in human MDA-MB-231 cells assessed as accumulation of cells at S phase at 6 uM incubated for 24 hrs by PI staining based flow cytometry analysis (reference value: 12.0%); assay type: functional
MDA-MB-231 [10] = assay: Induction of apoptosis in human MDA-MB-231 cells assessed as viable cells at 10 uM incubated for 24 hrs by FITC annexin V staining based analysis (reference value: 90.5%); assay type: functional; conditions: read-out: Activity
MDA-MB-231 [11] = assay: Induction of morphological changes in human MDA-MB-231 cells assessed as appearance of spherical shaped cell at 6 to 10 uM measured 24 hrs by EtBr-AO Live dead Assay; assay type: functional, cell-based; conditions: dose 6-10 µM
MDA-MB-231 [12] = assay: Upregulation of FasL protein level in human MDA-MB-231 cells at 8 uM measured after 24 hrs; assay type: functional, cell-based
MDA-MB-231 [13] = assay: Upregulation of HTRA protein level in human MDA-MB-231 cells at 8 uM measured after 24 hrs; assay type: functional, cell-based
MDA-MB-231 [14] = assay: Upregulation of Bax protein level in human MDA-MB-231 cells at 8 uM measured after 24 hrs; assay type: functional, cell-based
MDA-MB-231 [15] = assay: Induction of apoptosis in human MDA-MB-231 cells assessed as late apoptotic cells at 10 uM incubated for 24 hrs by FITC annexin V staining based analysis (reference value: 7.3%); assay type: functional
MDA-MB-231 [16] = assay: Upregulation of caspase 3 protein level in human MDA-MB-231 cells at 8 uM measured after 24 hrs; assay type: functional, cell-based
MDA-MB-231 [17] = assay: Downregulation of Cdc25c level in human MDA-MB-231 cells at 6 to 10 uM by Western blot analysis; assay type: functional, cell-based; conditions: dose 6-10 µM
MDA-MB-231 [18] = assay: Induction of apoptosis in human MDA-MB-231 cells assessed as increase in green fluorescence at 6 to 10 uM by acridine orange and ethidium bromide dual staining based analysis; assay type: functional, cell-based; conditions: dose 6-10 µM, time 12-48 hrs
MDA-MB-231 [19] = assay: Upregulation of TNF-alpha protein level in human MDA-MB-231 cells at 8 uM measured after 24 hrs; assay type: functional, cell-based
MDA-MB-231 [20] = assay: Downregulation of cIAP-2 protein level in human MDA-MB-231 cells at 8 uM measured after 24 hrs; assay type: functional, cell-based
MDA-MB-231 [21] = assay: Induction of apoptosis in human MDA-MB-231 cells assessed as fold increase in caspase 3 level at 8 uM by fluorometric assay; assay type: functional
MDA-MB-231 [22] = assay: Induction of apoptosis in human MDA-MB-231 cells assessed as late apoptotic cells at 6 uM incubated for 24 hrs by FITC annexin V staining based analysis (reference value: 7.3%); assay type: functional
MDA-MB-231 [23] = assay: Downregulation of Cdk2 level in human MDA-MB-231 cells at 6 to 10 uM by Western blot analysis; assay type: functional, cell-based; conditions: dose 6-10 µM
MDA-MB-231 [24] = assay: Antiproliferative activity against human MDA-MB-231 cells assessed as reduction in cell viability incubated for 24 hrs by MTT assay; assay type: functional, cell-based; conditions: MDA-MB-231, 24 h
MDA-MB-231 [25] = assay: Antiproliferative activity against human MDA-MB-231 cells assessed as reduction in cell viability measured after 12 to 48 hrs by MTT assay; assay type: functional, cell-based; conditions: dose 1-50 µM, time 12-48 hrs
MDA-MB-231 [26] = assay: Induction of morphological changes in human MDA-MB-231 cells assessed as leakage of intracellular components at 6 to 10 uM measured 24 hrs by EtBr-AO Live dead Assay; assay type: functional, cell-based; conditions: dose 6-10 µM
MDA-MB-231 [27] = assay: Induction of morphological changes in human MDA-MB-231 cells assessed as membrane blebbing at 6 to 10 uM measured 24 hrs by EtBr-AO Live dead Assay; assay type: functional, cell-based; conditions: dose 6-10 µM
MDA-MB-231 [28] = assay: Induction of cell cycle arrest in human MDA-MB-231 cells assessed as accumulation of cells at S phase at 8 uM incubated for 24 hrs by PI staining based flow cytometry analysis (reference value: 12.0%); assay type: functional

IC50 (MDA-MB-231 [24]): 8.81 µM
SMILES: O=C(CCCCCCCCc1ccccc1)c1c(O)cccc1O [MALABARICONE A]
fold change (FC) (MDA-MB-231 [1]): 3.1
fold change (FC) (MDA-MB-231 [2]): 2.4
Activity (MDA-MB-231 [3]): Active
Activity (MDA-MB-231 [4]): Active
Activity (MDA-MB-231 [5]): 7.3%
Activity (MDA-MB-231 [6]): Active
Activity (MDA-MB-231 [7]): Active
Activity (MDA-MB-231 [8]): 12.7%
IC50 (MCF-10A): 68.9 µM
Activity (MDA-MB-231 [9]): 9.7%
viability at 10 µM (MDA-MB-231 [10]): 32.4%
Activity (MDA-MB-231 [11]): Active
Activity (MDA-MB-231 [12]): Active
Activity (MDA-MB-231 [13]): Active
Activity (MDA-MB-231 [14]): Active
Activity (MDA-MB-231 [15]): 50.65%
Activity (MDA-MB-231 [16]): Active
Activity (MDA-MB-231 [17]): Active
Activity (MDA-MB-231 [18]): Time-dependent-effect
Activity (MDA-MB-231 [19]): Active
Activity (MDA-MB-231 [20]): Active
fold change (FC) (MDA-MB-231 [21]): 8.9
Activity (MDA-MB-231 [22]): 20.4%
Activity (MDA-MB-231 [23]): Active
Activity (MDA-MB-231 [25]): Dose-dependent-effect
Activity (MDA-MB-231 [26]): Active
Activity (MDA-MB-231 [27]): Active
Activity (MDA-MB-231 [28]): 9.1%
